Reference: article PMC13070491, “Single-nucleus transcriptomics, pharmacokinetics, and pharmacodynamics of CDK4/6 and mTOR inhibition in a Phase 0/1 trial of recurrent high-grade glioma” (Neuro-Oncology, 2025)

Test system: GB126, GB239 and GB86 patient-derived cell lines
Test: In vitro single-cell RNA sequencing, analyses across the cell lines (pseudobulk differential gene expression, GSEA, non-cycling cells)
Format: cell-based, human
Conditions: pseudobulk, ribociclib versus control (DMSO)
Protocol: Patient-derived glioma stem cell lines (GSCs; GB126, GB86, and GB239) were established from resected GBM tumor tissue. Cell lines were genetically profiled for mutations and copy number aberrations using the IvySeq custom gene panel. […] GB239 was derived from a tumor sample included in this Phase 0 trial (tumor sample: 100-0039). All human GSCs were cultured as described previously.[12]
Following the fifth day of drug exposure, cells were harvested, cryopreserved to be processed at a later point, or immediately processed for single-cell RNA sequencing (10x Genomics, 3’ version 3). The single-cell RNA sequencing data were then processed via cellranger count and Seurat. Briefly, cells were filtered out based on the following criteria: minimum number of genes detected >500 and <10 000 with a maximum percentage of mitochondrial genes set to 10%. Statistical assessment was made between the malignant proportions of each cell state using a 2-sided paired t-test.
Descriptive statistics of the clinical data are included in Table 1. Comparisons between groups were conducted using a 2-sided or paired 2-sided t-test, where indicated. P < .05 was considered significant. Multiple hypothesis test corrections (ie, false discovery rate correction) were applied for snRNAseq pseudobulk differential expression analysis.

With `CN(C)C(=O)c1cc2cnc(Nc3ccc(N4CCNCC4)cn3)nc2n1C1CCCC1` [ribo] the “log2FoldChange RTP4” value (gene RTP4) was 2.131, the log2FoldChange (gene SAC3D1) was -1.1095 and the “log2FoldChange SEC16B” value (gene SEC16B) was 1.622. For the same compound, the log2FoldChange (gene SGO1) was -1.732, the log2FoldChange (gene SHISA8) was -1.822 and the log2FoldChange (gene SLC2A4RG) was -1.127. The “log2FoldChange SNCG” value (gene SNCG) was 1.82, the log2FoldChange (gene SNRPB) was -1.13 and the “log2FoldChange SP6” value (gene SP6) was 1.619. For the same compound, the “log2FoldChange SPTBN5” value (gene SPTBN5) was 1.5798, the log2FoldChange (gene STARD8) was -1.058 and the log2FoldChange (gene TCF19) was -1.684. The log2FoldChange (gene TEKT2) was -1.108, the “log2FoldChange TEKT4” value (gene TEKT4) was 1.53 and the “log2FoldChange TEX29” value (gene TEX29) was 1.88. The “log2FoldChange TLR8” value (gene TLR8) was 1.7124, the “log2FoldChange TM4SF4” value (gene TM4SF4) was 1.515 and the “log2FoldChange TMEM88” value (gene TMEM88) was 1.467. For the same compound, the log2FoldChange (gene TMPO) was -1.685, the log2FoldChange (gene TNFRSF13C) was -1.634 and the log2FoldChange (gene TRPC3) was -1.603. The log2FoldChange (gene TUBA1B) was -1.731, the “log2FoldChange TUSC7” value (gene TUSC7) was 1.959 and the log2FoldChange (gene TYMSOS) was -1.808. It also gave a log2FoldChange (gene UBE2S) of -1.812, a log2FoldChange (gene UHRF1) of -1.689 and a log2FoldChange (gene WDR62) of -1.744. The log2FoldChange (gene XRCC2) was -1.646, the “log2FoldChange ZCCHC23” value (gene ZCCHC23) was 1.565 and the “log2FoldChange, feature AC004835.1” value was -1.938. For the same compound, the “log2FoldChange, feature AC011139.1” value was -2.033, the “log2FoldChange, feature AC020658.4” value was -2.697 and the “log2FoldChange, feature AC027277.1” value was -2.37. For the same compound, the “log2FoldChange, feature AC027627.1” value was -3.761, the “log2FoldChange, feature AC079753.2” value was -3.036 and the “log2FoldChange, feature AC084757.2” value was -2.199. The “log2FoldChange, feature AC087721.1” value was -2.244, the “log2FoldChange, feature AC097534.1” value was -1.917 and the “log2FoldChange, feature AC099845.1” value was -2.325. The “log2FoldChange, feature AF233439.1” value was -2.426, the “log2FoldChange, feature AL023803.2” value was -2.112 and the “log2FoldChange, feature AL136528.1” value was -3.4157. The “log2FoldChange, feature AL606468.1” value was -2.361, the “log2FoldChange, feature AL606500.1” value was -4.456 and the “log2FoldChange, feature ANLN” value was -2.17. For the same compound, the “log2FoldChange, feature APOLD1” value was -2.2948, the “log2FoldChange, feature ARHGEF16” value was -2.5327 and the “log2FoldChange, feature ARHGEF39” value was -2.785. For the same compound, the “log2FoldChange, feature ASF1B” value was -2.413, the “log2FoldChange, feature ASPM” value was -2.923 and the “log2FoldChange, feature AURKA” value was -1.946. For the same compound, the “log2FoldChange, feature AURKB” value was -5.69, the “log2FoldChange, feature BIRC5” value was -4.128 and the “log2FoldChange, feature BUB1B” value was -2.255. For the same compound, the “log2FoldChange, feature C1QL1” value was -2.176, the “log2FoldChange, feature CCNA1” value was -1.944 and the “log2FoldChange, feature CCNA2” value was -3.66. The “log2FoldChange, feature CCNB1” value was -2.309, the “log2FoldChange, feature CCNB2” value was -2.58 and the “log2FoldChange, feature CDC20” value was -2.615. For the same compound, the “log2FoldChange, feature CDC25C” value was -2.251, the “log2FoldChange, feature CDC45” value was -1.967 and the “log2FoldChange, feature CDCA2” value was -2.288. For the same compound, the “log2FoldChange, feature CDCA3” value was -4.424, the “log2FoldChange, feature CDCA5” value was -2.481 and the “log2FoldChange, feature CDCA8” value was -2.683. The “log2FoldChange, feature CDK1” value was -3.117, the “log2FoldChange, feature CDT1” value was -2.6933 and the “log2FoldChange, feature CENPE” value was -2.304. For the same compound, the “log2FoldChange, feature CENPF” value was -2.646, the “log2FoldChange, feature CENPM” value was -2.763 and the “log2FoldChange, feature CENPU” value was -1.962. The “log2FoldChange, feature CEP55” value was -2.857, the “log2FoldChange, feature CIT” value was -1.908 and the “log2FoldChange, feature CKAP2L” value was -3.667. The “log2FoldChange, feature COL2A1” value was -2.114, the “log2FoldChange, feature CSRP3-AS1” value was -2.408 and the “log2FoldChange, feature DEPDC1” value was -2.44. For the same compound, the “log2FoldChange, feature DHRS2” value was -3.141, the “log2FoldChange, feature DIAPH3” value was -2.737 and the “log2FoldChange, feature DIAPH3-AS1” value was -2.318. The “log2FoldChange, feature DLGAP5” value was -4.307, the “log2FoldChange, feature DUSP9” value was -1.8912 and the “log2FoldChange, feature E2F1” value was -2.143. For the same compound, the “log2FoldChange, feature E2F2” value was -2.717, the “log2FoldChange, feature E2F7” value was -1.962 and the “log2FoldChange, feature E2F8” value was -4.471. For the same compound, the “log2FoldChange, feature EMILIN3” value was -2.469, the “log2FoldChange, feature ESCO2” value was -3.335 and the “log2FoldChange, feature ESPL1” value was -2.787. The “log2FoldChange, feature EXO1” value was -2.588, the “log2FoldChange, feature FAM72C” value was -1.941 and the “log2FoldChange, feature FAM83D” value was -2.106. For the same compound, the “log2FoldChange, feature FAM111B” value was -3.61, the “log2FoldChange, feature FBLN7” value was -2.095 and the “log2FoldChange, feature FBXO5” value was -2.254. The “log2FoldChange, feature FOXM1” value was -3.356, the “log2FoldChange, feature FOXN4” value was -2.7907 and the “log2FoldChange, feature GTSE1” value was -3.691. For the same compound, the “log2FoldChange, feature H2AFX” value was -1.9706, the “log2FoldChange, feature HIST1H1B” value was -4.86 and the “log2FoldChange, feature HIST1H1D” value was -3.125. The “log2FoldChange, feature HIST1H1E” value was -2.149, the “log2FoldChange, feature HIST1H2AB” value was -3.666 and the “log2FoldChange, feature HIST1H2AD” value was -2.176. For the same compound, the “log2FoldChange, feature HIST1H2AG” value was -3.09, the “log2FoldChange, feature HIST1H2AH” value was -3.181 and the “log2FoldChange, feature HIST1H2AI” value was -3.193.
